Results as given in BigSolDB 2.1.

O=C(O)CCCC[C@@H]1SC[C@@H]2NC(=O)N[C@@H]21
Details | solubility (mole fraction)
in DMF, 298.65 K | 0.00356
in DMF, 303.25 K | 0.00413
in DMF, 308.15 K | 0.00497
in DMF, 313.15 K | 0.00603
in DMF, 318.15 K | 0.0075
in DMF, 323.25 K | 0.00902
in DMF, 328.15 K | 0.0107
in DMF, 333.15 K | 0.0128
in DMSO, 298.15 K | 0.0378
in DMSO, 303.15 K | 0.0425
in DMSO, 308.15 K | 0.0479
in DMSO, 313.15 K | 0.053
in DMSO, 318.05 K | 0.0582
in DMSO, 322.75 K | 0.0633
in DMSO, 327.65 K | 0.0687
in DMSO, 332.85 K | 0.0748
in acetic acid, 298.15 K | 0.00226
in acetic acid, 303.15 K | 0.00283
in acetic acid, 308.15 K | 0.0035
in acetic acid, 313.25 K | 0.00424
in acetic acid, 317.95 K | 0.00509
in acetic acid, 323.45 K | 0.00646
in acetic acid, 327.85 K | 0.00766
in acetic acid, 333.25 K | 0.00922
in ethanol, 298.15 K | 6.35e-05
in ethanol, 302.95 K | 8.69e-05
in ethanol, 308.85 K | 0.000133
in ethanol, 313.95 K | 0.000176
in ethanol, 318.45 K | 0.00023
in ethanol, 323.55 K | 0.000309
in ethanol, 329.35 K | 0.000442
in ethanol, 333.85 K | 0.000582
in methanol, 298.15 K | 6.92e-05
in methanol, 302.75 K | 9.37e-05
in methanol, 308.05 K | 0.000143
in methanol, 313.25 K | 0.000208
in methanol, 317.85 K | 0.000298
in methanol, 323.55 K | 0.00046
in methanol, 327.65 K | 0.000601
in methanol, 332.95 K | 0.000862
in water, 298.15 K | 4.97e-06
in water, 303.15 K | 8.18e-06
in water, 308.05 K | 1.28e-05
in water, 312.75 K | 2.06e-05
in water, 318.55 K | 3.52e-05
in water, 323.15 K | 5.42e-05
in water, 328.95 K | 9.12e-05
in water, 332.95 K | 0.000129
